From publication PMC9059125 (Journal of Medicinal Chemistry, 2022)

What was measured:
[1] = in vitro; details: pig, simulated gi fluid, pH 1.2, t1/2 SGF
[2] = in vitro; details: pig, simulated gi fluid, pH 6.8
[3] = molecular target: T1, human oxytocin receptor (OTR) (Homo sapiens, UniProt P30559); details: cited from earlier work
T1 construct: NIMH PDSP (data provider)
T1 sequence (P30559 1-389): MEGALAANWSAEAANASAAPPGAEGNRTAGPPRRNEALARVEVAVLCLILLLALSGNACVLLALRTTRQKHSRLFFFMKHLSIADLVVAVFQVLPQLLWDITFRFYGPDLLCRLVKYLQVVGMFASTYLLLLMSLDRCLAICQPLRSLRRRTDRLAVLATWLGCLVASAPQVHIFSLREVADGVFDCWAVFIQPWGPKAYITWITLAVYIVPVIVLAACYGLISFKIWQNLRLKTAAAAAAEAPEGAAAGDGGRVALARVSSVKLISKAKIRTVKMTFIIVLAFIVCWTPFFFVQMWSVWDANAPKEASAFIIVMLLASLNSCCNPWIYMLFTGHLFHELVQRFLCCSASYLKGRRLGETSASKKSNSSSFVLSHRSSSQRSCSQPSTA

[4] = simulated gi fluid, pH 1.2
[5] = simulated gi fluid, pH 6.8
[6] = test system: OTR; details: cited from earlier work

Row | SMILES | half-life [1] [h] | half-life [2] [h] | activity at the OTR (in words) [3] | t1/2 SGF [4] [h] | t1/2 SIF [5] [h] | agonistic activity at the OTR (in words) [6]
1 | CC[C@H](C)[C@@H]1NC(=O)[C@@H]2CCCN2C(=O)[C@@H]2CCCN2C(=O)[C@H]([C@@H](C)CC)NC(=O)[C@H](CO)NC(=O)[C@H](CCCCN)NC(=O)[C@H]([C@@H](C)O)NC(=O)[C@@H]2CSSC[C@H](NC1=O)C(=O)N[C@@H](Cc1ccccc1)C(=O)N1CCC[C@H]1C(=O)N[C@@H](CC(=O)O)C(=O)NCC(=O)N[C@@H](CCCNC(=N)N)C(=O)N2 [SFTI-1] | > 24 | 16.3 ± 2.7 | – | – | – | –
2 | CC[C@@H](C)[C@H]1NC(=O)[C@@H](CCC(N)=O)NC(=O)[C@@H](CC(N)=O)NC(=O)[C@H](NC(=O)[C@H]2CCCN2C(=O)[C@@H](CC(C)C)NC(=O)CN)CSSC[C@H](C(N)=O)NC(=O)[C@@H](Cc2ccc(O)cc2)NC1=O [all-D-retroinverse-OT] | – | > 24 | inactive | – | – | –
3 | CC[C@H](C)[C@@H]1NC(=O)[C@@H]2CCCN2C(=O)[C@H](Cc2c[nH]c3ccccc23)NC(=O)[C@H](CO)NC(=O)[C@@H]2CSSC[C@@H]3NC(=O)[C@H]([C@@H](C)O)NC(=O)[C@H](CCC(=O)O)NC(=O)CNC(=O)[C@@H]4CSSC[C@H](NC(=O)CNC(=O)[C@H](CCC(N)=O)NC(=O)[C@H]([C@@H](C)O)NC(=O)[C@H](Cc5ccc(O)cc5)NC(=O)[C@H](CSSC[C@H](NC1=O)C(=O)N[C@@H](CCCCN)C(=O)N[C@@H](CCCNC(=N)N)C(=O)N[C@@H](CC(N)=O)C(=O)NCC(=O)N[C@@H](CC(C)C)C(=O)N1CCC[C@H]1C(=O)N[C@@H](C(C)C)C(=O)N4)NC(=O)[C@H]([C@@H](C)O)NC(=O)CNC(=O)[C@H](CC(C)C)NC(=O)[C@H]([C@@H](C)O)NC3=O)C(=O)N[C@@H]([C@@H](C)O)C(=O)N2 [Kalata B7] | – | – | – | >24 | >24 | weak inherent agonistic activity
